Activity calls are given as the source filed them. No cut-off for these calls is given here.
How the values were obtained:
[1] = target: T1, Lysine-specific histone demethylase 1A (Homo sapiens, UniProt O60341)
Description: Inhibition of recombinant full length LSD1 (unknown origin) transfected in Escherichia coli BL21 (DE) using H3K4me2 as substrate by flourescence based analysis

[2] = target: T1, Lysine-specific histone demethylase 1A; assay: Inhibition of LSD1 in human MGC-803 cells assessed as increase in H3K4me2 expression measured after 24 hrs by western blot analysis; type: cell-based; details: dose 5-20 µM
[3] = target: T2, MAO-A (Homo sapiens, UniProt P21397); assay: Inhibition of N-terminal FLAG-tagged recombinant human MAO-A expressed in baculovirus-infected Sf9 cells at 5 uM using luciferin derivative as substrate pretreated for 15 mins followed by substrate addition and incubated for 60 mins by luciferase assay relative to control; details: probe luciferin derivative, time 75 min
T2 sequence (P21397 whole entry): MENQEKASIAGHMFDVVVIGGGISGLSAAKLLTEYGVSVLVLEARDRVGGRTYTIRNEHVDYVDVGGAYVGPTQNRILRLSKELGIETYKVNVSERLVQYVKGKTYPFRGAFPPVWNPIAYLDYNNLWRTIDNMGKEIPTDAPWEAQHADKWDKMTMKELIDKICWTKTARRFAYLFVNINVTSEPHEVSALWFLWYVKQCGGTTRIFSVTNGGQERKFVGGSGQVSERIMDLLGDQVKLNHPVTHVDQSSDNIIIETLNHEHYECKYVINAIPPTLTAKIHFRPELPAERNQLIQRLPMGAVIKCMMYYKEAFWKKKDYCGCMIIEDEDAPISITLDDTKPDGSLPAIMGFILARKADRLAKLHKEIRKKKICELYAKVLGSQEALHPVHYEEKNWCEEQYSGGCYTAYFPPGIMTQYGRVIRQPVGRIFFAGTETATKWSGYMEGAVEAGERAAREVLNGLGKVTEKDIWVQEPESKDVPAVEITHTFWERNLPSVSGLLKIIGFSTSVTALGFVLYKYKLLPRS

[4] = test system: MGC-803; assay: Induction of apoptosis in human MGC-803 cells assessed as live cells at 20 uM measured after 24 hrs by Annexin V-FITC/PI staining based flow cytometry analysis (Rvb= 89%); type: functional
[5] = target: Tyrosine-protein kinase BTK (Homo sapiens) (UniProt Q06187); assay: Inhibition of N-terminal GST-fused human full length recombinant BTK expressed in baculovirus-infected Sf21 cells at 5 uM using 5-FAM-EAIYAAPFAKKK as a substrate incubated for 60 mins in the presence of ATP by caliper analysis relative to control
Chain of Tyrosine-protein kinase BTK (Homo sapiens) (Q06187 whole entry, the tested form may be a part): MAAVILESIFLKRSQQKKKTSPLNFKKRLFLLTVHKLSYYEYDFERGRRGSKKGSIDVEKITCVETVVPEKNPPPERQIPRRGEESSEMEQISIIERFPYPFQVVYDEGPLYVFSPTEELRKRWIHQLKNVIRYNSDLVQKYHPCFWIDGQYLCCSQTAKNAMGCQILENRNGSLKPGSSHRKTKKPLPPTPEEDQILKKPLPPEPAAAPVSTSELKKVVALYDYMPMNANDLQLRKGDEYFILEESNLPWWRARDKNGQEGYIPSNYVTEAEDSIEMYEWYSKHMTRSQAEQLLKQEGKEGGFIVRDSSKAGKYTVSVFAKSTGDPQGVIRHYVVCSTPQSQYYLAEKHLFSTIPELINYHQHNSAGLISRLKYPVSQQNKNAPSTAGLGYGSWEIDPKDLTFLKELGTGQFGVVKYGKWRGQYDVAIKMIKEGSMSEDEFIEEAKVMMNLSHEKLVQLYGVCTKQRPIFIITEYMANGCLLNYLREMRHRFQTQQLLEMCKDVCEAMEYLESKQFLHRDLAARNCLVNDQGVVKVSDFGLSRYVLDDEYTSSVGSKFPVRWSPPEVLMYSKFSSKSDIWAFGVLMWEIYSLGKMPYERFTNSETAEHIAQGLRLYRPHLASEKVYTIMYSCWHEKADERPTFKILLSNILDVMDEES

[6] = target: Cyclin-dependent kinase 1 (Homo sapiens) (UniProt P06493); assay: Inhibition of CDK1 (unknown origin) at 5 uM using 5-FAM-QSPKKG-CONH2 as a substrate incubated for 60 mins in the presence of ATP by caliper analysis relative to control
Chain of Cyclin-dependent kinase 1 (Homo sapiens) (P06493 whole entry, looked up): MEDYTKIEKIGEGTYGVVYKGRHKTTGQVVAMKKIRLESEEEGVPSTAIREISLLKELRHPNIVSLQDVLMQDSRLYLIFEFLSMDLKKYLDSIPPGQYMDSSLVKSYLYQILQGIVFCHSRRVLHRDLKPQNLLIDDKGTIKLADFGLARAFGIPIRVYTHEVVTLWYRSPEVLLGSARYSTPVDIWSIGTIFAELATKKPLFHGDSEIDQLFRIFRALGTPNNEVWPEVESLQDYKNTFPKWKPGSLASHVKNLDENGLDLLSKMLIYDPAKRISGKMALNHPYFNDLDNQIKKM

[7] = test system: MGC-803; assay: Induction of apoptosis in human MGC-803 cells assessed as necrotic cells at 5 uM measured after 24 hrs by Annexin V-FITC/PI staining based flow cytometry analysis (Rvb= 1%); type: functional
[8] = test system: NCI-H460; assay: cells; details: Homo sapiens, NCI-H460, 72 h
Description: Antiproliferative activity against human NCI-H460 cells assessed as cell growth inhibition measured after 72 hrs by MTT assay

[9] = test system: NCI-H1975; assay: cells; details: Homo sapiens, NCI-H1975, 72 h
Description: Antiproliferative activity against human NCI-H1975 cells assessed as cell growth inhibition measured after 72 hrs by MTT assay

[10] = test system: MGC-803; assay: Induction of apoptosis in human MGC-803 cells assessed as live cells at 10 uM measured after 24 hrs by Annexin V-FITC/PI staining based flow cytometry analysis (Rvb= 89%); type: functional
[11] = test system: MGC-803; assay: Induction of apoptosis in human MGC-803 cells assessed as necrotic cells at 20 uM measured after 24 hrs by Annexin V-FITC/PI staining based flow cytometry analysis (Rvb= 1%); type: functional
[12] = test system: NCI-H1650; assay: cells; details: Homo sapiens, NCI-H1650, 72 h
Description: Antiproliferative activity against human NCI-H1650 cells assessed as cell growth inhibition measured after 72 hrs by MTT assay

[13] = target: T1, Lysine-specific histone demethylase 1A; assay: Inhibition of recombinant full length LSD1 (unknown origin) transfected in Escherichia coli BL21 (DE) at 5 uM using H3K4me2 as a substrate by flourescence based analysis relative to control
[14] = Aqueous solubility of the compound in water; type: physicochemical
[15] = test system: MGC-803; assay: Induction of apoptosis in human MGC-803 cells assessed as viable cells at 5 uM measured after 24 hrs by Annexin V-FITC/PI staining based flow cytometry analysis (Rvb= 89%); type: functional; details: read-out: Activity
[16] = test system: HepG2; assay: cells; details: Homo sapiens, HepG2, 72 h
Description: Antiproliferative activity against human HepG2 cells assessed as cell growth inhibition measured after 72 hrs by MTT assay

[17] = test system: MGC-803; assay: Inhibition of clonogenicity in human MGC-803 cells assessed as reduction in colony formation measured after 10 days by crystal violet staining based analysis; type: functional, cell-based; details: dose 1-20 µM, time 10.0 day
[18] = test system: MGC-803; assay: Induction of apoptosis in human MGC-803 cells assessed as necrotic cells at 10 uM measured after 24 hrs by Annexin V-FITC/PI staining based flow cytometry analysis (Rvb= 1%); type: functional
[19] = test system: GES1; assay: cells; details: Homo sapiens, GES1, 72 h
Description: Cytotoxicity against human GES1 cells assessed as cell growth inhibition measured after 72 hrs by MTT assay

[20] = test system: PC-3; assay: cells; details: Homo sapiens, PC-3, 72 h
Description: Antiproliferative activity against human PC-3 cells assessed as cell growth inhibition measured after 72 hrs by MTT assay

[21] = test system: MGC-803; assay: Antitumor activity against human MGC-803 cells xenografted in nude mouse assessed as chromatin condensation in tumor tissue at 40 to 80 mg/kg/day, iv measured after 21 days by H and E staining based histopathological analysis; type: functional, organism-based; details: dose 40-80 mg/kg/day, time 21.0 day
[22] = test system: MGC-803; assay: Induction of apoptosis in human MGC-803 cells assessed as early apoptotic cells at 5 uM measured after 24 hrs by Annexin V-FITC/PI staining based flow cytometry analysis (Rvb= 6.1%); type: functional
[23] = test system: MGC-803; assay: Antitumor activity against human MGC-803 cells xenografted in nude mouse assessed as inhibition of tumor growth at 40 to 80 mg/kg/day, iv administered for 21 days; type: functional, organism-based; details: dose 40-80 mg/kg/day, time 21.0 day
[24] = test system: MGC-803; assay: Induction of apoptosis in human MGC-803 cells assessed as late apoptotic cells at 10 uM measured after 24 hrs by Annexin V-FITC/PI staining based flow cytometry analysis (Rvb= 3.9%); type: functional
[25] = test system: MGC-803; assay: Antitumor activity against human MGC-803 cells xenografted in nude mouse assessed as low cell density in tumor tissue at 40 to 80 mg/kg/day, iv measured after 21 days by H and E staining based histopathological analysis; type: functional, organism-based; details: dose 40-80 mg/kg/day, time 21.0 day
[26] = target: T3, MAO-B (Homo sapiens, UniProt P27338); assay: Inhibition of N-terminal FLAG-tagged recombinant human MAO-B expressed in baculovirus-infected Sf9 cells at 5 uM using luciferin derivative as substrate pretreated for 15 mins followed by substrate addition and incubated for 60 mins by luciferase assay relative to control; details: probe luciferin derivative, time 75 min
T3 sequence (P27338 whole entry): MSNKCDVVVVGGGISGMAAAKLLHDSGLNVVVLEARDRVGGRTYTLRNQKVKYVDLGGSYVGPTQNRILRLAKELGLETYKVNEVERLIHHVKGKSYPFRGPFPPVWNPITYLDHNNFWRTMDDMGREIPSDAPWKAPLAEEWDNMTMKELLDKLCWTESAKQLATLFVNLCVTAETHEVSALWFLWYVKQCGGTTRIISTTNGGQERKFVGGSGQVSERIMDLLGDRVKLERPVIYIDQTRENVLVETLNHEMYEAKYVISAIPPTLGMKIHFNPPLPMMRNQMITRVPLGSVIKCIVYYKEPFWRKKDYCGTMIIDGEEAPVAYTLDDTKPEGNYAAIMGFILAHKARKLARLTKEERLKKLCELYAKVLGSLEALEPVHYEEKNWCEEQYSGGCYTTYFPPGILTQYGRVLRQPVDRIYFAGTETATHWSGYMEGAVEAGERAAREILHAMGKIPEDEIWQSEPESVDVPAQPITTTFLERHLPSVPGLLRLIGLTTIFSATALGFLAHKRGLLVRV

[27] = Ocular toxicity in nude mouse xenografted with human MGC-803 cells at 40 to 80 mg/kg/day, iv administered for 21 days; type: organism-based; details: in vivo, 504 h, dose 40-80 mg/kg/day, time 21 day
[28] = test system: MGC-803; assay: Induction of apoptosis in human MGC-803 cells assessed as early apoptotic cells at 10 uM measured after 24 hrs by Annexin V-FITC/PI staining based flow cytometry analysis (Rvb= 6.1%); type: functional
[29] = test system: MGC-803; assay: Inhibition of epithelial mesenchymal transition process in human MGC-803 cells assessed as increase in E-cadherin expression at 0.1 to 0.5 uM measured after 24 hrs western blot analysis; type: functional, cell-based; details: dose 0.1-0.5 µM
[30] = test system: BGC-823; assay: cells; details: Homo sapiens, BGC-823, 72 h
Description: Antiproliferative activity against human BGC-823 cells assessed as cell growth inhibition measured after 72 hrs by MTT assay

[31] = test system: MGC-803; assay: cells; details: Homo sapiens, MGC-803, 72 h
Description: Antiproliferative activity against human MGC-803 cells assessed as cell growth inhibition measured after 72 hrs by MTT assay

[32] = target: Epidermal growth factor receptor (Homo sapiens, UniProt P00533); assay: Inhibition of EGFR (unknown origin)
Chain of Epidermal growth factor receptor (P00533 whole entry): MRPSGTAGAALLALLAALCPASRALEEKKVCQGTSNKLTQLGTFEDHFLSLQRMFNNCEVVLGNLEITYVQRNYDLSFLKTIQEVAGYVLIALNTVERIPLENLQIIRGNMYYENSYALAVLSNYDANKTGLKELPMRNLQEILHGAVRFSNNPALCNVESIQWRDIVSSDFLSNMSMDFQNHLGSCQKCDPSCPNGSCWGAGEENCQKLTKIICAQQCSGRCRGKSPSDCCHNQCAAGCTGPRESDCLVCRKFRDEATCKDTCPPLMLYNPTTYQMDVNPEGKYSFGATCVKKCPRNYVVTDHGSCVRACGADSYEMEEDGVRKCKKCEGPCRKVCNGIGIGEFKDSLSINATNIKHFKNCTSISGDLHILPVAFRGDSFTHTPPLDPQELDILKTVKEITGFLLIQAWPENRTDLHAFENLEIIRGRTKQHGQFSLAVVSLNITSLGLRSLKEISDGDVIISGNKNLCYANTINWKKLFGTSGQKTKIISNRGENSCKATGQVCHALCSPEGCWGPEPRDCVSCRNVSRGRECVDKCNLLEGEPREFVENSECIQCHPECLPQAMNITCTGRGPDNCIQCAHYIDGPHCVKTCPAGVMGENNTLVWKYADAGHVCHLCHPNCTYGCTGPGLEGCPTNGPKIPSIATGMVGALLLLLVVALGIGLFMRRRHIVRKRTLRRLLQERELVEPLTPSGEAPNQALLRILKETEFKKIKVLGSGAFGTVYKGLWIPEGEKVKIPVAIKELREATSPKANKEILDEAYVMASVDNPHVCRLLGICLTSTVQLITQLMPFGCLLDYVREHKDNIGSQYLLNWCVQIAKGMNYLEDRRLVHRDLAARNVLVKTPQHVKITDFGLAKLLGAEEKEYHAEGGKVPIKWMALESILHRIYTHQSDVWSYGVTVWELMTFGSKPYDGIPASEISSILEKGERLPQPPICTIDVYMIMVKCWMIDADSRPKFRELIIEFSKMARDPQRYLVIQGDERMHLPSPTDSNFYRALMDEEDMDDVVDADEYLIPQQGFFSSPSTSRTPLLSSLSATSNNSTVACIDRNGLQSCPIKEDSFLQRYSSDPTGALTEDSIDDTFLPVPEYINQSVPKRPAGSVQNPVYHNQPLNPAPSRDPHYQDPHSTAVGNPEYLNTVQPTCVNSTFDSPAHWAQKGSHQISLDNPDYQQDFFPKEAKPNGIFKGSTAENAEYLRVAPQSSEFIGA

[33] = test system: ECa-109 cell line; assay: cells; details: Homo sapiens, ECa-109, 72 h
Description: Antiproliferative activity against human EC109 cells assessed as cell growth inhibition measured after 72 hrs by MTT assay

[34] = test system: MGC-803; assay: Inhibition of clonogenicity in human MGC-803 cells assessed as reduction in colony formation at 10 uM measured after 10 days by crystal violet staining based analysis relative to control; type: functional; details: MGC-803, 240 h, time 10 day
[35] = test system: MGC-803; assay: Antitumor activity against human MGC-803 cells xenografted in nude mouse assessed as reduction in tumor weight at 40 mg/kg/day, iv administered for 21 days relative to control; type: functional; details: MGC-803, iv, 504 h, time 21 day
[36] = test system: MGC-803; assay: Inhibition of cell migration in human MGC-803 cells at 0.5 uM measured after 48 hrs by transwell assay relative to control; type: functional
[37] = test system: MCF7; assay: cells; details: Homo sapiens, MCF7, 72 h
Description: Antiproliferative activity against human MCF7 cells assessed as cell growth inhibition measured after 72 hrs by MTT assay

[38] = test system: MGC-803; assay: Induction of apoptosis in human MGC-803 cells assessed as early apoptotic cells at 20 uM measured after 24 hrs by Annexin V-FITC/PI staining based flow cytometry analysis (Rvb= 6.1%); type: functional
[39] = Toxicity in nude mouse xenografted with human MGC-803 cells assessed as body weight loss at 40 to 80 mg/kg/day, iv administered for 21 days; type: organism-based; details: in vivo, 504 h, dose 40-80 mg/kg/day, time 21 day
[40] = test system: MGC-803; assay: Antitumor activity against human MGC-803 cells xenografted in nude mouse assessed as reduction in tumor weight at 80 mg/kg/day, iv administered for 21 days relative to control; type: functional; details: MGC-803, iv, 504 h, time 21 day
[41] = test system: MGC-803; assay: Inhibition of epithelial mesenchymal transition process in human MGC-803 cells assessed as decrease in N-cadherin expression at 0.1 to 0.5 uM measured after 24 hrs western blot analysis; type: functional, cell-based; details: dose 0.1-0.5 µM
[42] = test system: MGC-803; assay: Antitumor activity against human MGC-803 cells xenografted in nude mouse assessed as pyknosis in tumor tissue at 40 to 80 mg/kg/day, iv measured after 21 days by H and E staining based histopathological analysis; type: functional, organism-based; details: dose 40-80 mg/kg/day, time 21.0 day
[43] = organism: Homo sapiens; assay: Selectivity index, ratio of IC50 for inhibition of EGFR (unknown origin) to IC50 for inhibition of recombinant human full length LSD1 transfected in Escherichia coli BL21 (DE)
[44] = target: Glycogen synthase kinase-3 beta (Homo sapiens) (UniProt P49841); assay: Inhibition of GSK-3beta (unknown origin) at 5 uM relative to control
Chain of Glycogen synthase kinase-3 beta (Homo sapiens) (P49841 whole entry, looked up): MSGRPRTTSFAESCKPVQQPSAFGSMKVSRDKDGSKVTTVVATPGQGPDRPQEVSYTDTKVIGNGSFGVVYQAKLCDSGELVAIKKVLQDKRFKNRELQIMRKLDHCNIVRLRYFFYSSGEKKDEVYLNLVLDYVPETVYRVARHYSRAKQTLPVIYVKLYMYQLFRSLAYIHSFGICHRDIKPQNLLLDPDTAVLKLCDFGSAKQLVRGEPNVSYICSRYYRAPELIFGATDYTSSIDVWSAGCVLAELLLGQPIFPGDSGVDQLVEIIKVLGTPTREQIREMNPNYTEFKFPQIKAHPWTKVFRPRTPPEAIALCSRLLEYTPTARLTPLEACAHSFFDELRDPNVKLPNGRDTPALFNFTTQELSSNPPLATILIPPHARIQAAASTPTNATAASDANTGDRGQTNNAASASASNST

[45] = test system: MGC-803; assay: Induction of apoptosis in human MGC-803 cells assessed as late apoptotic cells at 5 uM measured after 24 hrs by Annexin V-FITC/PI staining based flow cytometry analysis (Rvb= 3.9%); type: functional
[46] = test system: MGC-803; assay: Induction of apoptosis in human MGC-803 cells assessed as late apoptotic cells at 20 uM measured after 24 hrs by Annexin V-FITC/PI staining based flow cytometry analysis (Rvb= 3.9%); type: functional

C#Cc1cccc(Nc2ncnc3ccccc23)c1
IC50 [1]: > 50 µM

COCCOc1cc2ncnc(Sc3nnnn3-c3ccccc3)c2cc1OCCOC
IC50 [1]: > 50 µM

COCCOc1cc2ncnc(Sc3nc[nH]n3)c2cc1OCCOC
inhibition [2]: Dose-Dependent Effect | inhibition at 1.25 h, 5 µM [3]: 15% | Activity [4]: 20.6% | inhibition [5]: < 2% | inhibition [6]: < 2% | Activity [7]: 0.4% | IC50 [8]: 28.2 µM | IC50 [9]: 26.6 µM | Activity [10]: 55.1% | Activity [11]: 2.3% | IC50 [12]: 17.2 µM | inhibition [13]: 97% | solubility [14]: > 100 mg/mL | viability at 5 µM [15]: 68.4% | IC50 [16]: 16.2 µM | inhibition [17]: Dose-Dependent Effect | Activity [18]: 2.2% | IC50 [19]: > 50 µM | IC50 [20]: > 50 µM | Activity [21]: Active | Activity [22]: 10.3% | IC50 [1]: 0.69 µM | Activity [23]: Active | Activity [24]: 29.3% | Activity [25]: Active | inhibition at 1.25 h, 5 µM [26]: 18% | Activity [27]: Non-Toxic | Activity [28]: 13.3% | inhibition [29]: Active | IC50 [30]: 15.3 µM | IC50 [31]: 9.21 µM | IC50 [32]: 5.21 µM | IC50 [33]: 9.65 µM | inhibition at 10 µM [34]: > 90% | inhibition in vivo at 40 mg/kg/day [35]: 81.6% | inhibition at 0.5 µM [36]: 70% | IC50 [37]: 38.5 µM | Activity [38]: 31.2% | Activity [39]: Non-Toxic | inhibition in vivo at 80 mg/kg/day [40]: 96.1% | inhibition [41]: Active | Activity [42]: Active | Ratio IC50 [43]: 7.5 | inhibition [44]: 13% | Activity [45]: 20.9% | Activity [46]: 45.8%

COCCOc1cc2ncnc(Sc3ccccn3)c2cc1OCCOC
IC50 [1]: > 50 µM
